Experiment [1] deals with T1, human BRD4 bromodomain II (Homo sapiens, UniProt O60885).
T1 construct: human BRD4 bromodomain II [based on Genbank NM_058243, residues 349-460]; host or cells: E. coli
As to the kind of experiment: Bromodomain binding assay (AlphaScreen), BRD4 BDII. The procedure, abridged: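 Tagged BRD4 BDI or BDII constructs, expressed in E. coli, competed against a K5/K8/K12/K16-acetylated biotin-H4 peptide. Proximity signal between bead pairs after room-temperature incubations gave concentration-response curves, from which IC50 was derived.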

Experiment [2] deals with human SKM-1 acute myeloid leukemia cells. As to the kind of experiment: SKM-1 antiproliferation cell-based assay (ATPlite). The conditions noted are these: Homo sapiens. The gist of the method: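 Log-phase cells in RPMI 1640/15% FBS were seeded at 34722 cells/mL and exposed for 4 days to nine-concentration DMSO serial dilutions in triplicate. Viability was read as ATP luminescence (ATPlite 1step), and IC50 values came from variable-slope non-linear regression.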

Where [3] appears, read: AlphaScreen assay, Table C2, read-out: BRD4 BDII IC50.
[4] abbreviates: SKM-1, 96 h, SKM-1 antiproliferation assay, 4 days, Table C2.
Where [5] appears, read: BRD4 BDII AlphaScreen assay, read-out: BRD4 BD2 IC50.
Setting [6] is: SKM-1, SKM-1 antiproliferation assay.

This is an account of results in patent US20250179059A1 (The Regents of the University of California, priority 2021, published 2025).

Where two headings read alike, the source gives them in different places.

With `Cn1ccn(-c2ccc(-c3cc(F)cc(-c4ccnc(N5CCC(C)(O)CC5)c4)c3O)cc2Cl)c1=O` [Example 762, 1-(3-chloro-5′-fluoro-2′-hydroxy-3′-(2-(4-hydroxy-4-methylpiperidin-1-yl)pyridin-4-yl)-[1,1′-biphenyl]-4-yl)-3-methyl-1,3-dihydro-2H-imidazol-2-one], the IC50 (usually the concentration that gives 50% inhibition) in experiment [1] (setting [3]) lay within 1 to 10 nM. The GI50 (usually the concentration giving 50% growth inhibition) in experiment [2] (setting [4]) lay in the range of 30 to 300 nM.
Take `CC(=O)Nc1ccc(-c2cccc(-c3cc(OC4CC4)nc(N4CCNCC4)c3)c2O)cc1F` [Example 351, N-(3′-(2-cyclopropoxy-6-(piperazin-l-yl)pyridin-4-yl)-3-fluoro-2′-hydroxy-[1,1′-biphenyl]-4-yl)acetamide]: in experiment [1] (setting [3]), the IC50 lay in the range of 10 to 100 nM. For the same compound, the GI50 in experiment [2] (setting [4]) lay in the range of 300 to 3000 nM.
The corresponding values for `CN1CCN(c2cc(-c3cc(F)cc(-c4ccc(-n5ccn(C)c5=O)c(Cl)c4)c3O)cc3[nH]ncc23)CC1` [Example 588, 1-(3-chloro-5′-fluoro-2′-hydroxy-3′-(4-(4-methylpiperazin-1-yl)-1H-indazol-6-yl)-[1,1′-biphenyl]-4-yl)-3-methyl-1H-imidazol-2(3H)-one] are 0.01 to 1 nM and 0.3 to 30 nM.
Consider `CC(=O)NCc1ccc(-c2cccc(-c3ccc(N4CCN(C)C4=O)c(Cl)c3)c2O)cc1N1CCNCC1` [Example 320, N-((3″-chloro-2′-hydroxy-4″-(3-methyl-2-oxoimidazolidin-1-yl)-3-(piperazin-1-yl)-[1,1′:3′,1″-terphenyl]-4-yl)methyl)acetamide], for which the IC50 in experiment [1] (setting [3]) lay in the range of 1 to 10 nM. The compound further came in with a GI50 in experiment [2] (setting [4]) of 30 to 300 nM.
Consider `Cc1cc(-c2ccc(-n3ccn(C)c3=O)c(Cl)c2)c(O)c(-c2cccc(N3CCC4(CCN4C(C)C)C3)c2)n1` (centres unmarked) [Example 983, 1-(2-chloro-4-(3-hydroxy-2-(3-(1-isopropyl-1,6-diazaspiro[3.4]octan-6-yl)phenyl)-6-methylpyridin-4-yl)phenyl)-3-methyl-1H-imidazol-2(3H)-one], for which the IC50 in experiment [1] (setting [5]) lay within 0.01 to 1 nM. This compound also came in with a GI50 in experiment [2] (setting [6]) of 0.3 to 30 nM.
Regarding `CN1CCN(c2ccc(-c3cc(F)cc(-c4cnc(-c5ccn[nH]5)c(N5CCNCC5)c4)c3O)cc2Cl)C1=O` [Example 391, 1-(3-chloro-5′-fluoro-2′-hydroxy-3′-(5-(piperazin-1-yl)-6-(1H-pyrazol-5-yl)pyridin-3-yl)-[1,1′-biphenyl]-4-yl)-3-methylimidazolidin-2-one], the IC50 in experiment [1] (setting [3]) fell in the range of 1 to 10 nM. In experiment [2] (setting [4]), this compound came in with a GI50 of 30 to 300 nM.
The corresponding values for `CN1CCN(c2cncc(-c3cc(F)cc(-c4ccc(-n5ccn(C)c5=O)c(Cl)c4)c3O)c2)CC1` [Example 465, 1-(3-chloro-5′-fluoro-2′-hydroxy-3′-(5-(4-methylpiperazin-1-yl)pyridin-3-yl)-[1,1′-biphenyl]-4-yl)-3-methyl-1H-imidazol-2(3H)-one] are 0.01 to 1 nM and 0.3 to 30 nM.
Regarding `O=C1OCCN1c1ccc(-c2cc(F)cc(-c3ccnc(N4CCNCC4)c3)c2O)cc1Cl` [Example 371, 3-(3-chloro-5′-fluoro-2′-hydroxy-3′-(2-(piperazin-1-yl)pyridin-4-yl)-[1,1′-biphenyl]-4-yl)oxazolidin-2-one], the IC50 in experiment [1] (setting [3]) fell in the range of 10 to 100 nM. In experiment [2] (setting [4]), this compound displayed a GI50 of 300 to 3000 nM.
In the case of `CC(C)N1CCN(c2cc(-c3cc(F)cc(-c4ccc(-n5ccn(C)c5=O)c(Cl)c4)c3O)cnc2C(F)(F)F)CC1` [Example 804, 1-(3-chloro-5′-fluoro-2′-hydroxy-3′-(5-(4-isopropylpiperazin-1-yl)-6-(trifluoromethyl)pyridin-3-yl)-[1,1′-biphenyl]-4-yl)-3-methyl-1H-imidazol-2(3H)-one], in experiment [1] (setting [3]), the IC50 was in the range of 1 to 10 nM. Besides, the GI50 in experiment [2] (setting [4]) fell in the range of 0.3 to 30 nM.
`Cc1cc(-c2ccc(-n3ccn(C)c3=O)c(Cl)c2)c(O)c(-c2cnc(N)c(N3CCC4(CCCN4C(C)C)C3)c2)n1` (centres unmarked) [Example 978, 1-(4-(6′-amino-3-hydroxy-5′-(1-isopropyl-1,7-diazaspiro[4.4]nonan-7-yl)-6-methyl-[2,3′-bipyridin]-4-yl)-2-chlorophenyl)-3-methyl-1H-imidazol-2(3H)-one]: in experiment [1] (setting [5]), the concentration for half-maximal inhibition (IC50) fell in the range of 0.01 to 1 nM. This compound also came in with a GI50 in experiment [2] (setting [6]) of 0.3 to 30 nM.
Regarding `C[C@@H]1CN(c2cc(-c3cc(F)cc(-c4ccc(-n5ccn(C)c5=O)c(Cl)c4)c3O)cc3[nH]ncc23)C[C@H](C)N1` [Example 577], the IC50 in experiment [1] (setting [3]) was in the range of 0.01 to 1 nM. In addition, the GI50 in experiment [2] (setting [4]) was 0.3 to 30 nM.
As for `CCc1cc(-c2cc(F)cc(-c3ccc(-n4ccn(C)c4=O)c(Cl)c3)c2O)cc(N2CCN(C(C)C)CC2)n1` [Example 704, 1-(3-chloro-3′-(2-ethyl-6-(4-isopropylpiperazin-1-yl)pyridin-4-yl)-5′-fluoro-2′-hydroxy-[1,1′-biphenyl]-4-yl)-3-methyl-1H-imidazol-2(3H)-one], in experiment [1] (setting [3]), the IC50 lay in the range of 0.01 to 1 nM. The compound also yielded a concentration for 50% growth inhibition (GI50) in experiment [2] (setting [4]) of 0.3 to 30 nM.
As to `Cn1ccn(-c2ccc(-c3cc(F)cc(-c4cncc(N5CCNC(C)(C)C5)c4)c3O)cc2Cl)c1=O` [Example 561, 1-(3-chloro-3′-(5-(3,3-dimethylpiperazin-1-yl)pyridin-3-yl)-5′-fluoro-2′-hydroxy-[1,1′-biphenyl]-4-yl)-3-methyl-1H-imidazol-2(3H)-one], in experiment [1] (setting [3]), the IC50 was in the range of 0.01 to 1 nM. The compound also came in with a GI50 in experiment [2] (setting [4]) of 0.3 to 30 nM.
The corresponding values for `Cn1ccn(-c2ccc(-c3cc(F)cc(-c4ccnc(N5CCC(N6CCC(F)CC6)C5)c4)c3O)cc2Cl)c1=O` (centres unmarked) [Example 701, 1-(3-chloro-5′-fluoro-3′-(2-(3-(4-fluoropiperidin-1-yl)pyrrolidin-1-yl)pyridin-4-yl)-2′-hydroxy-[1,1′-biphenyl]-4-yl)-3-methyl-1H-imidazol-2(3H)-one] are 0.01 to 1 nM and 30 to 300 nM.
Turning to `CN1CCN(c2ccc(-c3cccc(-c4cc(C#N)cc(N5CCNCC5)c4)c3O)cc2Cl)C1=O` [Example 331, 3″-chloro-2′-hydroxy-4″-(3-methyl-2-oxoimidazolidin-1-yl)-5-(piperazin-1-yl)-[1,1′:3′,1″-terphenyl]-3-carbonitrile], the IC50 in experiment [1] (setting [3]) is 1 to 10 nM. Besides, in experiment [2] (setting [4]), the GI50 lay within 30 to 300 nM.
In the case of `Cc1cc(-c2ccc(-n3ccn(C)c3=O)c(Cl)c2)c(O)c(-c2cc(N3CC[C@H](N)C3)c3nc[nH]c3c2)c1` [Example 564], the IC50 in experiment [1] (setting [3]) fell in the range of 0.01 to 1 nM. Moreover, the GI50 in experiment [2] (setting [4]) lay within 0.3 to 30 nM.
On to `C[C@@H]1CN(c2cc(-c3cc(Cl)cc(-c4ccc(-n5ccn(C)c5=O)c(F)c4)c3O)ccn2)CCN1` [Example 538, (R)-1-(5′-chloro-3-fluoro-2′-hydroxy-3′-(2-(3-methylpiperazin-1-yl)pyridin-4-yl)-[1,1′-biphenyl]-4-yl)-3-methyl-1H-imidazol-2(3H)-one], for which the IC50 in experiment [1] (setting [3]) lay in the range of 1 to 10 nM. Moreover, the GI50 in experiment [2] (setting [4]) lay in the range of 30 to 300 nM.
The like results for `CC(=O)Nc1ccc(-c2cccc(-c3ccnc(C#CCN)c3)c2O)cc1F` [Example 296, N-(3′-(2-(3-aminoprop-1-yn-1-yl)pyridin-4-yl)-3-fluoro-2′-hydroxy-[1,1′-biphenyl]-4-yl)acetamide] were, in that order, 10 to 100 nM and 300 to 3000 nM.
On to `Cc1cc(-c2ccc(-n3ccn(C)c3=O)c(Cl)c2)c(N)c(-c2cccc(N3CCN(C(C)(C)C)CC3)c2)n1` [Example 992, 1-(4-(3-Amino-2-(3-(4-(tert-butyl)piperazin-1-yl)phenyl)-6-methylpyridin-4-yl)-2-chlorophenyl)-3-methyl-1H-imidazol-2(3H)-one], for which, in experiment [1] (setting [5]), the IC50 is 1 to 10 nM. Besides, the GI50 in experiment [2] (setting [6]) lay within 0.3 to 30 nM.
